Where two headings read alike, the source gives them in different places.
Assays:
H520 cells = assay: Oxic and anoxic anti-proliferative activity of the prodrugs
[1] = Murine plasma pharmacokinetics assay; assay type: in vivo, NIH-III nude mice; details: for AUC(0-inf) / half-life / Cmax / Tmax / AUC(0-t): female, NIH-III nude, mouse, ip, plasma; for AUC(0-t): observed, read-out: AUC0-24
Protocol: Compound 204 was formulated in water for injection at 2 or 4 mg/ml to be administered by intraperitoneal injection at 0.02 ml/g body weight to achieve a 40 or 80 mg/kg dose. Specific pathogen-free female NIH-III mice (Crl:NIH Lyst^bg Foxn1^nu Btk^xid) were obtained from the Vernon Jansen Unit (VJU), The University of Auckland. To minimize exogenous infection, mice were maintained in individually ventilated cages at 6 mice per cage (Sealsafe Plus Mouse AERO, Tecniplast) and handled in accordance with the Guide for the Care and Use of Laboratory Animals, The University of Auckland. Mice had access to water and food ad libitum. Following dosing, at the specified time points (0.5, 1, 2, 4, 6 and 24 hours, n=3 per time point) mice were anaesthetised (isoflurane inhalation) and blood collected through cardiac puncture. Mice were subsequently culled via cervical dislocation whilst anaesthetized. Blood was collected in ice cold tubes (BD Microtainer® containing K2EDTA) and centrifuged (7 minutes at 6,500 rpm) to separate the plasma fraction. Plasma samples were stored at −80° C. until analysis. Control mice were injected with vehicle only and plasma collected as described. Prior to analysis by LC-MS/MS, calibration standards were prepared in control mouse plasma with a synthetic standard of Compound 204. Plasma samples expected to be outside the range of these standards were diluted in control mouse plasma. Standards and samples were mixed with 3 volumes of ice-cold acetonitrile containing internal standard (2 uL) and then centrifuged at 13000 rpm for 10 minutes at 4° C. The resulting supernatant was diluted in 2 volumes of 0.01% formic acid in water and 10 uL injected onto the LC-MS/MS system using an established quantitative analysis method. Pharmacokinetic parameters resulting from model fit of Compound 204 plasma concentration-time data were then derived where Tmax=time at maximum concentration, Tmax-obs=time at maximum observed concentration, Cmax-obs=maximum concentration observed, Cmax=maximum concentration determined by model, T1/2=half-life of Compound 204 in plasma during elimination phase, AUC0-24=observed area under the mean concentration-time curve, AUC0-inf=area under the concentration-time curve of the model fit.

[2] = test system: SiHa xenograft (tumour hypoxia); assay: EF5 immunostaining and MALDI imaging mass spectrometry assay; assay type: in vivo, NIH-III nude mice; details: 86 mg/kg IP, tumours collected after 24 hours; EF5 60 mg/kg
Protocol: SiHa cervical tumour cells were implanted into the flanks of female NIH-III mice to form subcutaneous xenografts. […] Vehicle and drug-treated SiHa tumours were sectioned at 12 um and collected by melting. Five serial sections were collected from each sample such that sections 1, 3 and 5 were mounted on a standard glass slide for optical microscopy, while sections 2 and 4 were mounted on ITO coated glass slides for MALDI imaging. Slides were stored at −80° C. until required.
Imaging mass spectrometry was performed at 30 um spatial resolution using a MALDI FT-ICR mass spectrometer (Bruker Solarix-XR 7T) operating in positive ion mode. […] They were washed in dH2O for 5 minutes, in Tris-Buffered saline (TBS) for 10 minutes and blocked with 10% goat serum in TBS and 1% Tween-20, for 1 h, at room temperature. Sections were then incubated with Alexa488-ELK3-51 antibody (Hypoxia-Imaging.org, University of Pennsylvania, US) that recognises EF5 adducts in hypoxic cells and counterstained with DAPI.

[3] = test system: SW780 (FGFR3-amplified bladder cancer) xenograft; assay: Anti-tumour activity, SW780 xenograft; assay type: in vivo, NIH-III nude mice; details: q3dx4, IP
Protocol: Specific pathogen-free homozygous female NIH-III nude mice (Charles River Laboratories, Wilmington, Mass.) were inoculated subcutaneously with a single cell suspension of SW780 cells (8×10^6 cells/100 μL with Matrigel; right flank) or SNU-16 cells (10×10^6 cells/100 μL; right flank). When tumour xenografts were established (typically 7-14 days for SW780 and 21-28 days for SNU-16) mice were randomized to treatment groups. Test compounds of the present invention were prepared in Water for Injection (WFI). Mice were dosed by intraperitoneal injection (0.01-0.03 ml/g) using the stated schedules and dose levels. […] Tumour size and body weights were measured at regular intervals. Tumour volume was calculated as […] (length×width^2)/6.

SUM52 cells = assay: Oxic and anoxic anti-proliferative activity of the prodrugs
[4] = test system: 4T1 murine syngeneic breast cancer cells; assay: Anti-tumour activity, murine 4T1 model; assay type: in vivo, BALB/c mice; details: 70 mg/kg IP, controls 16 days
Protocol: Studies in BALB/c mice: 4T1 murine syngeneic breast cancer cells (7.5×10^6 cells/mouse) were implanted into the subcutaneous space, in the right flank of immunocompetent BALB/c female mice. Treatment with Compound 204 started at the stated day post cell-implant. Compound 204 was administered intraperitoneally at the stated dose and schedule in Water for Injection. Tumour measurements and body weight were recorded every day, until all tumours increased their volume 4-fold (RTV^4) from day0 of experimental assignment.

[5] = Pulse radiolysis of prodrugs; assay type: physicochemical
SW780 cells = assay: Oxic and anoxic anti-proliferative activity of the prodrugs; assay type: cell-based
[6] = test system: SNU-16 (FGFR2-amplified) gastric cancer xenograft; assay: Anti-tumour activity, SNU-16 xenograft; assay type: in vivo, NIH-III nude mice; details: 80 mg/kg, q7dx2, IP; to day 11
Protocol: Specific pathogen-free homozygous female NIH-III nude mice (Charles River Laboratories, Wilmington, Mass.) were inoculated subcutaneously with a single cell suspension of SW780 cells (8×10^6 cells/100 μL with Matrigel; right flank) or SNU-16 cells (10×10^6 cells/100 μL; right flank). […] Test compounds of the present invention were prepared in Water for Injection (WFI). Mice were dosed by intraperitoneal injection (0.01-0.03 ml/g) using the stated schedules and dose levels. […] Tumour size and body weights were measured at regular intervals. Tumour volume was calculated as n (length×width^2)/6.

SMILES: COc1cc(OC)c(Cl)c(N2Cc3cnc(Nc4ccccc4)nc3N(C3CCN(C(=O)/C=C/C[N+](C)(C)Cc4c([N+](=O)[O-])ncn4C)CC3)C2=O)c1Cl.[Br-] [Compound 204, (E)-4-(4-(3-(2,6-dichloro-3,5-dimethoxyphenyl)-2-oxo-7-(phenylamino)-3,4-dihydropyrimido[4,5-d]pyrimidin-1(2H)-yl)piperidin-1-yl)-N,N-dimethyl-N-((1-methyl-4-nitro-1H-imidazol-5-yl)methyl)-4-oxobut-2-en-1-aminium bromide]
- fold less potent than the inhibitor compound 112 at inhibiting proliferation (deactivation) (H520 cells; H520, oxic): 307 fold
- Hypoxic Cytotoxicity Ratio (HCR), H520 (H520 cells; ratio of oxic and anoxic IC50): 27
- IC50 (H520 cells; read-out: Cellular Anti-proliferative IC50, H520, Anoxic, 4 hours of anoxia, remainder of assay oxic): 47 nM
- IC50 (H520 cells; read-out: Cellular Anti-proliferative IC50, H520, Oxic, oxic conditions): 1260 nM
- change of maximum plasma concentration and area under the plasma concentration-time curve with increase in dose ([1]; 40 and 80 mg/kg intraperitoneal): linear increase
- time to maximum plasma concentration ([1]; doses of 40 and 80 mg/kg intraperitoneal): 2 to 3 h
- AUC(0-inf) ([1]; 40 mg/kg intraperitoneal, model fit): 262 ± 10.8 µM·h
- AUC(0-inf) ([1]; 80 mg/kg intraperitoneal, model fit): 606 ± 103 µM·h
- half-life ([1]; 40 mg/kg, 40 mg/kg intraperitoneal, elimination phase, read-out: T1/2 (converted)): 72.6 ± 3.6 min
- Cmax ([1]; 40 mg/kg, 40 mg/kg intraperitoneal, model fit, read-out: Cmax): 54.9 ± 2.38 µM
- Tmax ([1]; 40 mg/kg, 40 mg/kg intraperitoneal, model fit, read-out: Tmax): 1.75 ± 0.06 h
- AUC(0-t) ([1]; 40 mg/kg, 40 mg/kg intraperitoneal): 382 µM·h
- Cmax ([1]; 40 mg/kg, 40 mg/kg intraperitoneal, read-out: Cmax-obs): 51.8 ± 7.46 µM
- Tmax ([1]; 40 mg/kg, 40 mg/kg intraperitoneal, read-out: Tmax-obs): 2 h
- half-life ([1]; 80 mg/kg, 80 mg/kg intraperitoneal, elimination phase, read-out: T1/2 (converted)): 107 ± 21.6 min
- Cmax ([1]; 80 mg/kg, 80 mg/kg intraperitoneal, model fit, read-out: Cmax): 86.4 ± 10.4 µM
- Tmax ([1]; 80 mg/kg, 80 mg/kg intraperitoneal, model fit, read-out: Tmax): 2.58 ± 0.36 h
- AUC(0-t) ([1]; 80 mg/kg, 80 mg/kg intraperitoneal): ~900 µM·h
- Cmax ([1]; 80 mg/kg, 80 mg/kg intraperitoneal, read-out: Cmax-obs): 77.3 ± 14.7 µM
- Tmax ([1]; 80 mg/kg, 80 mg/kg intraperitoneal, read-out: Tmax-obs): 4 h
- half-life ([1]; 80 mg/kg, doses of 40 and 80 mg/kg intraperitoneal, read-out: plasma half-life): 72 to 108 min
- metabolism of prodrug and release of FGFR inhibitor compound 112 in tumours [2]: hypoxia-selective metabolism
- time for tumours to reach RTV4 ([3]; 100 umol/kg dose): approximately 26 days
- tumour response at the higher doses tested ([3]; 30 to 133 umol/kg/dose): regressed the tumours
- fold less potent than the inhibitor compound 112 at inhibiting proliferation (deactivation) (SUM52 cells; SUM52, oxic): 296 fold
- Hypoxic Cytotoxicity Ratio (HCR), SUM52 (SUM52 cells; ratio of oxic and anoxic IC50): 12
- IC50 (SUM52 cells; read-out: Cellular Anti-proliferative IC50, SUM52, Anoxic, 4 hours of anoxia, remainder of assay oxic): 17 nM
- IC50 (SUM52 cells; read-out: Cellular Anti-proliferative IC50, SUM52, Oxic, oxic conditions): 207 nM
- median survival time ([4]; q2dx3): 18 days
- median survival time ([4]; q3dx3): 20 days
- median survival time ([4]; q4dx3): 21 days
- median survival time ([4]; q5dx3): 22 days
- first order rate of fragmentation kfrag [5]: 30 s⁻¹
- IC50 (SW780 cells; Homo sapiens, SW780, oxic conditions, read-out: Cellular Anti-proliferative IC50, SW780, Oxic): 1390 nM
- fold less potent than the inhibitor compound 112 at inhibiting proliferation (deactivation) (SW780 cells; SW780, oxic): 143 fold
- tumour response [6]: regressed following each drug administration
